Reference: patent US20140024677A1, “METHODS FOR INDUCING MITOCHONDRIAL BIOGENESIS” (MUSC Foundation For Research Development, priority 2012, published 2014)

Key:
renal mitochondria = settings: treatment after I/R injury
Experimental: Mitochondrial function was measured ex vivo by isolating renal mitochondria and determining state 4 (basal respiration) and state 3 (ADP-stimulated respiratory rate).

I/R induced AKI = settings: after five doses started 24 h after I/R injury; 144 h
Experimental: Assessing renal function. For mice, blood was collected by retro-orbital eye bleed 24 h and 144 h. Creatinine levels were measured using a Quantichrom Creatinine Assay Kit (BioAssay Systems, Hayward, Calif.) according to the manufacturer's protocol.

mtDNA in kidney cortex = experiment: mtDNA copy number in kidney of dosed mice (D-loop/apoB); type: in vivo, C57BL/6 mice; settings: 72 h after daily repeated i.p. injection with 100 mg/kg (so in the source)
Excerpt: (§1) Mitochondrial DNA Content.

mtDNA in heart = experiment: mtDNA copy number in heart of dosed mice (D-loop/apoB); type: in vivo, C57BL/6 mice
Excerpt: as §1

[1] = test system: KIM-1, PGC-1α, COX I, NDUFB8 in renal cortical tissue
Experimental: I/R model of AKI. Eight-week-old male C57BL6 mice weighing 25-30 g were subjected to bilateral renal pedicle ligation. Briefly, renal artery and vein were isolated and blood flow was occluded with a vascular clamp for 20 min, and mice were euthanized at 24, 72, or 144 h after procedure, at which time kidneys were harvested for molecular analysis. All procedures involving animals were performed with approval from the IACUC in accordance with the NIH Guide for the Care and Use of Laboratory Animals.
Immunoblot analysis. Renal cortical tissue was lysed in RIPA buffer containing cocktail protease and phosphatase inhibitors. Total protein content was measured by the BCA assay. Fifty micrograms of total protein were loaded into SDS-PAGE gels and immunoblots were performed as previously described (26). Antibodies used for immunoblot studies were obtained from the following vendors: caspase 3 (Enzo Life Sciences), GAPDH (Fitzgerald Antibodies), COX I and NDUFB8 (MitoSciences), KIM-1 (R&D Systems), and PGC-1α (Calbiochem).
mRNA analysis. Total RNA was isolated from renal cortical tissue with TRIzol (Invitrogen) according to the manufacturer's protocol and cDNA was synthesized using RevertAid First Strand cDNA Synthesis Kit (Fermentas). PCR reactions were performed using 3:1 diluted cDNA product. Primers sequences for NDUFB8 and COX I were used.
Previous in vivo and in vitro research has identified depletion of mitochondrial function and abundance in models of hypoxia correlated with dysfunctional kidney function.

[2] = test system: adult feline cardiomyocytes (AFC); type: cell-based; settings: 24 hr, formoterol 10 and 30 nM
Experimental: Respirometry assay. […] Each experimental plate was treated with vehicle controls (DMSO<0.5%), a positive control (SRT1720, 10 μM), blank controls, and the appropriate concentration of the compound of interest. The XF-96 protocol consists of five measurements of basal OCR (1 measurement/1.5 min), injection of FCCP (0.5 μM), and three measurements of uncoupled OCR (1 measurement/1.5 min). […] Quality control evaluations considered the basal and uncoupled rates of the vehicle control, positive control, and variances between duplicate treatment wells. […] This threshold is ≧1 S.D. above the historic mean for the vehicle control.

gastrocnemius muscle = experiment: Dexamethasone-induced muscle wasting, gastrocnemius weight; type: in vivo, Mice
Excerpt: On the 8th day, gastrocnemius muscle was isolated from both the hind limbs and weighed. The average weights were normalized to initial body weights.

COc1ccc(C[C@@H](C)NC[C@H](O)c2ccc(O)c(NC=O)c2)cc1 (racemic) [formoterol, rac-(R,R)—N-[2-hydroxy-5-[1-hydroxy-2-[1-(4-methoxyphenyl)propan-2-ylamino]ethyl]phenyl]formamide]
Mitochondrial respiration of isolated renal mitochondria (basal and state 3) (renal mitochondria): completely restore | Serum creatinine (SCr) (I/R induced AKI): 0.29 mg/dL | mtDNA copy number increase, kidney cortex (mtDNA in kidney cortex): 2 fold | mtDNA copy number increase (FIG. 3C, heart figure) (mtDNA in heart; 24 h, i.p. 100 mg/kg (so in the source)): 2 fold | mtDNA copy number increase (FIG. 3C, heart figure) (mtDNA in heart; 72 h, daily repeated i.p. 100 mg/kg (so in the source)): 2.5 fold | KIM-1 protein expression ([1]; 144 h post I/R injury): to the level of sham vehicle | Gene transcription and protein translation in sham animals ([1]; sham animals exposed to formoterol vs control animals): not significantly altered | COX I gene expression ([1]; treatment after I/R, 144 h): restored with treatment of formoterol after I/R, but not significantly different than the I/R vehicle group | COX I protein expression ([1]; treatment after I/R, 144 h): significantly above the I/R vehicle group | NDUFB8 gene transcription ([1]; treatment after I/R, 144 h): did not restore | NDUFB8 protein expression ([1]; treatment after I/R, 144 h): significantly above the I/R vehicle group | Total PGC-1α gene expression ([1]; treatment from 24 h post I/R injury, 144 h): significantly above the I/R vehicle group, but not fully restored to control levels

C[C@H](Cc1ccc(OCC(=O)O)cc1)NC[C@H](O)c1cccc(Cl)c1.O.[Na] (relative stereo) [BRL 37344, (±)-(R*,R*)-[4-[2-[[2-(3-Chlorophenyl)-2-hydroxyethyl]amino]propyl]phenoxy]acetic acid sodium hydrate]
Change in FCCP-uncoupled OCR [2]: did not have any significant effects

C[C@@H]1C[C@H]2[C@@H]3CCC4=CC(=O)C=C[C@]4(C)[C@@]3(F)[C@@H](O)C[C@]2(C)[C@@]1(O)C(=O)CO [DEX, dexamethasone]
Decrease in gastrocnemius wt. compared to saline controls (gastrocnemius muscle; 25 mg/kg i.p., 7 days, weight normalized to initial body weight): 15%

CC(C)NC[C@H](O)c1ccc(O)c(O)c1.Cl [isoproterenol, (R)-3,4-Dihydroxy-α-(isopropylaminomethyl)benzyl alcohol hydrochloride]
Change in FCCP-uncoupled OCR [2]: did not have any significant effects

(3R)-N-methyl-3-(2-methylphenoxy)-3-phenylpropan-1-amine [Tomoxetine]
Gastrocnemius muscle weight in DEX-treated mice (gastrocnemius muscle; co-injected with dexamethasone 25 mg/kg i.p. for 7 days, formoterol 100/300 ug/Kg i.p., atomoxetine 100 ug/kg i.p.): restored atrophied muscle back to normal
